Measurements as given in US9133224B2, “Macrocyclic kinase inhibitors” (OSI Pharmaceuticals, LLC, priority 2010, dated 2015).
pIC50: −log10 of the molar value. Where two headings read alike, the source gives them in different places.

Experiments:
[1] = target: T1, GST-tagged full-length FAK enzyme (PTK2) (Homo sapiens, UniProt Q05397); assay: Biochemical Omnia Assay (FAK)
T1 construct: GST-tagged full-length FAK enzyme (PTK2, Invitrogen PV4085); GST; purchased Invitrogen PV4085
Description: Biochemical Omnia Assay Protocol
The Omnia Assay (Invitrogen) has been optimized for GST-tagged full-length FAK enzyme (PTK2, Invitrogen PV4085).
All compound concentrations were assayed in duplicate. Initial compound dilutions were prepared at 100× concentration in 100% DMSO from a 10 mM stock solution. Compounds were further diluted 1:25 in assay buffer resulting in a 4× concentrated solution.
In running the assay, 5 μL of the above 4× concentrated compound solution (or 4% DMSO for positive controls) was added to the assay plate followed by 5 μL of a solution containing peptide (40 μM) and ATP (200 μM) in assay buffer. The reaction was initiated by the addition of 10 μL of FAK (50 nM) in assay buffer, or assay buffer alone for negative controls. The increase in fluorescence due to peptide phosphorylation was monitored continuously as a function of time using a Spectramax M5 plate reader (Molecular Devices) equipped with SoftMax Pro 5.2 software.
IC50 values were determined from the slopes of the linear progress curves by non-linear curve-fitting using GraphPad Prism 5 (GraphPad Software, Inc.).

FAK = target: T2, FAK (Homo sapiens, UniProt Q05397); assay: Cell-based capture ELISA for inhibition of FAK autophosphorylation [pY397] in U87MG cells
T2 construct: endogenous in cells; host or cells: U87MG glioblastoma cells (ATCC HTB-14)
Description: Cell-Based Assays for Inhibition of FAK Autophosphorylation: MiaPaCa2 and U87MG
The ability of compounds to inhibit FAK autophosphorylation was determined in a cell-based capture ELISA assay using U87MG glioblastoma cells (ATCC, Cat # HTB-14) and the FAK [pY397]ELISA kit from Invitrogen (KHO0441). The assay determines the ability of compounds to block endogenous autophosphorylation of FAK stimulated by fibronectin. Cells plated on fibronectin coated 96-well plate were incubated with compounds at various concentrations in the complete growth medium for 2 h. Cell lysates were then prepared and FAK protein was captured onto a FAK antibody-coated 96-well ELISA plate. The phosphotyrosine content of FAK protein was then monitored by quantitation of degree of binding of an antibody that recognizes only the phosphorylated FAK at Y397 within the captured protein.
Reagents Provided in Biosource FAK [pY397]
Cultures of U87MG cells growing in MEM (Earles) containing non-essential amino acids, sodium pyruvate (1 mM), […] (1%) and 10% fetal bovine serum were detached by trypsin-EDTA and suspended in cell growth medium. Cells were then plated onto fibronectin (600 ng/well)-coated 96-well flat bottom plates at 1.7×10^4 cells per well in 60 uL cell growth medium and incubated overnight at 37° C. in a CO2 incubator.
Compound dilutions were prepared from 10 mM DMSO stocks by dilution in cell growth medium, the final concentration of DMSO in the assay being 0.6%. […] The cells were then incubated with compounds at 37° C. for 2 h. The medium was removed by aspiration and cells were lysed by addition of 20 uL of ice-cold cell lysis buffer per well. The plates were kept on ice for 20 min and 50 uL of standard diluent was added to each well. 50 uL of cell lysate from each well was transferred to respective wells in an assay plate and 50 uL of detection antibody was added to all wells except H1-H6 which were no antibody control wells. Capture assay plates were incubated overnight in a cold room.
Following incubation of the cell lysates and detection antibodies in the ELISA plate, the wells were washed 4 times with 120 uL of wash buffer (1×), then 100 uL of diluted HRP conjugated antibody (1:100 dil in diluent) was added to each well, and the plate was incubated at RT for 30 min. The wells were then washed for 4 times with 120 uL of wash buffer (1×) and 100 uL of chromogen was added to each well and incubated in the dark at RT for 5-10 min. 100 uL of stop solution was added to each well and the absorbance measured at 450 nm, 0.1 s.
Comparison of the assay signals obtained in the presence of compound with those of positive and negative controls (cells with no compound and no detection antibody being added), allows degree of inhibition of phospho-FAK [Y397] to be determined over a range of compound concentrations. […] The assay as described above was modified to determine the effect of inclusion of 50% (v/v) mouse or human plasma. In this assay, the compound plate was prepared as 2× concentration in 100 uL of 100% mouse or human plasma, and 60 uL of this was added to 60 uL of culture medium and incubated at 37° C. incubator for 2 h. The rest of the assay was carried out as described above.

[2] = mean IC50, [ATP] = 50uM, read-out: FAK Activity Biochemical OMNIA, [ATP] = 50uM
[3] = 50% (v/v) human plasma, mean IC50, read-out: FAK Activity Mechanistic (U87MG) HP
[4] = 50% (v/v) mouse plasma, mean IC50, read-out: FAK Activity Mechanistic (U87MG) MP
[5] = no plasma present, mean IC50, read-out: FAK Activity Mechanistic (U87MG) NP

T1 sequence (Q05397 whole entry): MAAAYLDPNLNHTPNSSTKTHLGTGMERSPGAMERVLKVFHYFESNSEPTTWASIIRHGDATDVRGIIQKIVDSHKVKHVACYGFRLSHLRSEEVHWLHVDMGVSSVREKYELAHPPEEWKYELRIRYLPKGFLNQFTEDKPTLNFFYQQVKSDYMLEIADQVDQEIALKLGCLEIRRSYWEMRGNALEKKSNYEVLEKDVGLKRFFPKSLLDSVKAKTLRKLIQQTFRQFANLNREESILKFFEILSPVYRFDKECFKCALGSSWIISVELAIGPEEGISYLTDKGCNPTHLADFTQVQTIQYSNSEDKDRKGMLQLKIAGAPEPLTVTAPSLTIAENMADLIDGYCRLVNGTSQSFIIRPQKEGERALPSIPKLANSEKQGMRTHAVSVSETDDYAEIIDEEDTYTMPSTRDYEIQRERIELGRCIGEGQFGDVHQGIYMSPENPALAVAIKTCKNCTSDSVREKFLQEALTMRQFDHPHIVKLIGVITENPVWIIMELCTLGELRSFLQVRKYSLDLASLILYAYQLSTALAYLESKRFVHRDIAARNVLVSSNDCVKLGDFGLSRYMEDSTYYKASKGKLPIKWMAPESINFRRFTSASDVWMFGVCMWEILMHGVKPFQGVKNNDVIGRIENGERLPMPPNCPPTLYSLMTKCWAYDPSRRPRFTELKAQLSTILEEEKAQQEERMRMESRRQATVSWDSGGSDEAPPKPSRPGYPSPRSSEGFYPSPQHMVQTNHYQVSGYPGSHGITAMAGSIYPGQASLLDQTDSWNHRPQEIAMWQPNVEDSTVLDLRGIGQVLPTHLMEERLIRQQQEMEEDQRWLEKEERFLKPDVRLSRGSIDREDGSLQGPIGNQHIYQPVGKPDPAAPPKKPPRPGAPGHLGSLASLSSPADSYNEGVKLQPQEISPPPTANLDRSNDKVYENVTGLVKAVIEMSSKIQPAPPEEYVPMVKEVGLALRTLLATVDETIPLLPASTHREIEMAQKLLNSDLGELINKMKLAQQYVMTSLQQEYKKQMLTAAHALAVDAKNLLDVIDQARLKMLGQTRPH
T2 sequence (Q05397 whole entry): as above

SMILES | pIC50 [1, 2] | pIC50 (FAK; [3]) | pIC50 (FAK; [4]) | pIC50 (FAK; [5]) | pIC50 [1] | pIC50 (FAK; FAK Activity Mechanistic (U87MG) MP, 50% (v/v) mouse plasma, mean IC50) | pIC50 ([1]; read-out: FAK Activity Biochemical OMNIA, [ATP] = 50uM, mean IC50, [ATP] = 50uM)
CCOP1(=O)Cc2ccc(c(Cl)c2)Nc2ncc(C(F)(F)F)c(n2)Nc2ccc(nc2C(=O)NC)-c2cnn(c2)CCCO1 (single isomer, unassigned) [Example 24A] | > 6.40 | < 5.40 | 5.40 to 6.40 | > 6.40 |  |  | 
CCOP1(=O)Cc2ccc(c(OC)c2)Nc2ncc(C(F)(F)F)c(n2)Nc2ccc(c(F)c2C(=O)NC)-c2cnn(c2)CCCO1 (racemic) [Example 27] |  |  | 5.40 to 6.40 | > 6.40 | > 6.40 |  | 
CCCP1(=O)Cc2ccc(c(OC)c2)Nc2ncc(C(F)(F)F)c(n2)Nc2ccc(nc2C(=O)NC)-c2cnn(c2)CCCO1 (racemic) [Example 37] | > 6.40 | > 6.40 | 5.40 to 6.40 | > 6.40 |  |  | 
CCOP1(=O)Cc2ccc(c(OC)c2)Nc2ncc(C(F)(F)F)c(n2)Nc2ccc(nc2C(=O)NC)-c2cn(nc2C#N)CCCO1 (racemic) [Example 52] |  |  |  | > 6.40 | > 6.40 |  | 
CCNC(=O)c1cc2ccc1Nc1nc(ncc1C(F)(F)F)Nc1ccc(cc1)CP(=O)(OCC)OCCCn1cc-2cn1 (racemic) [Example 10] |  | < 5.40 |  | 5.40 to 6.40 | > 6.40 |  | 
CCP1(=O)Cc2ccc(c(OC)c2)Nc2ncc(C(F)(F)F)c(n2)Nc2ccc(nc2C(=O)NC)-c2cnn(c2)CCCO1 (racemic) [Example 67] | > 6.40 | > 6.40 | > 6.40 | > 6.40 |  |  | 
CCOP1(=O)Cc2ccc(cc2)Nc2ncc(C(F)(F)F)c(n2)Nc2ccc(nc2C(=O)NC)-c2cnn(c2)CC(C)CO1 (mixture of isomers) [Example 21] | > 6.40 | > 6.40 |  | > 6.40 |  |  | 
CCOP1(=O)Cc2ccc(c(F)c2)Nc2ncc(C(F)(F)F)c(n2)Nc2ccc(nc2C(=O)NC)-c2cnn(c2)CCCCO1 (racemic) [Example 23] | > 6.40 | > 6.40 |  | > 6.40 |  |  | 
CCOP1(=O)Cc2ccc(c(OC)c2)Nc2ncc(C(F)(F)F)c(n2)Nc2ccc(nc2C(=O)NC)-c2c(C)nn(c2C)CCCO1 (racemic) [Example 43] | > 6.40 | 5.40 to 6.40 |  | > 6.40 |  |  | 
CCOP1(=O)Cc2ccc(c(OC)c2Cl)Nc2ncc(C(F)(F)F)c(n2)Nc2ccc(nc2C(=O)NC)-c2cnn(c2)CCCO1 (single isomer, unassigned) [Example 54A] |  | < 5.40 |  | 5.40 to 6.40 | > 6.40 |  | 
CCOP1(=O)Cc2ccc(c(OC)c2)Nc2ncc(C(F)(F)F)c(n2)Nc2ccc(nc2C(=O)NC)-c2cnn(c2)CC2(COC2)CO1 (racemic) [Example 44] |  | > 6.40 |  | > 6.40 | > 6.40 |  | 
CCOP1(=O)Cc2ccc(c(OC)c2)Nc2ncc(C(F)(F)F)c(n2)Nc2ccc(nc2C(=O)NC)-c2cnn(c2C)CCCO1 (racemic) [Example 35] | > 6.40 | > 6.40 |  | > 6.40 |  |  | 
CCOP1(=O)Cc2ccc(c(OC)c2)Nc2ncc(C(F)(F)F)c(n2)Nc2ccc(nc2C(=O)NC)-c2cn(nc2Cl)CCCO1 (racemic) [Example 49] | > 6.40 | > 6.40 | 5.40 to 6.40 | > 6.40 |  |  | 
CCOP1(=O)Cc2ccc(c(OC)c2)Nc2ncc(C(F)(F)F)c(n2)Nc2ccc(nc2C(=O)NC)-c2cc(C(=O)NC)n(c2)CCCO1 (racemic) [Example 42] |  | > 6.40 |  | > 6.40 | > 6.40 | 5.40 to 6.40 | 
CCOP1(=O)Cc2ccc(c(OC)c2)Nc2ncc(C(F)(F)F)c(n2)Nc2ccc(nc2C(=O)NC)-c2cnn(c2)CC(C)(C)CO1 (racemic) [Example 47] |  | > 6.40 |  | > 6.40 | > 6.40 |  | 
CCOP1(=O)Cc2ccc(c(OC)c2)Nc2ncc(C(F)(F)F)c(n2)Nc2ccc(nc2C(=O)NC)-c2cnn(c2C#N)CCCO1 (racemic) [Example 53] | 5.40 to 6.40 |  |  | < 5.40 |  |  | 
CCOP1(=O)Cc2ccc(c(OC)c2)Nc2cc(c(C(F)(F)F)cn2)Nc2ccc(nc2C(=O)NC)-c2cnn(c2)CCCO1 (racemic) [Example 36] |  | > 6.40 | 5.40 to 6.40 | > 6.40 | > 6.40 |  | 
CCOP1(=O)Cc2ccc(c(Cl)c2)Nc2ncc(C(F)(F)F)c(n2)Nc2ccc(nc2C(=O)NC)-c2cnn(c2)CC2(COC2)CO1 (single isomer, unassigned) [Example 58A] |  | 5.40 to 6.40 |  | > 6.40 | > 6.40 |  | 
CCOP1(=O)Cc2ccc(c(OC)c2)Nc2ncc(C(F)(F)F)c(n2)Nc2ccc(nc2C(=O)NC)-c2cn(nc2OC)CCCO1 (single isomer, unassigned) [Example 48A] |  | < 5.40 | 5.40 to 6.40 | > 6.40 | > 6.40 |  | 
CCOP1(=O)Cc2ccc(cc2)Nc2ncc(C(F)(F)F)c(n2)Nc2ccc(cc2C(=O)N(C)C)-c2cnn(c2)CCCO1 (racemic) [Example 11] |  | 5.40 to 6.40 |  | > 6.40 | > 6.40 |  | 
CCOP1(=O)Cc2ccc(c(OC)c2)Nc2ncc(C(F)(F)F)c(n2)Nc2ccc(c3c2C(=O)N(C)C3)-c2cnn(c2)CCCCO1 (racemic) [Example 17] | > 6.40 | > 6.40 |  | > 6.40 |  |  | 
CCOP1(=O)Cc2ccc(c(OC)c2)Nc2ncc(C(F)(F)F)c(n2)Nc2ccc(c3c2C(=O)N(C)C3)-c2cnn(c2)C[C@H](O)CO1 (mixture of isomers) [Example 5] |  | > 6.40 |  | > 6.40 | > 6.40 |  | 
CCOP1(=O)Cc2ccc(c(OC)c2)Nc2ncc(C(F)(F)F)c(n2)Nc2ccc(nc2C(=O)NC)-c2cnn(c2)CC(F)(F)CO1 (single isomer, unassigned) [Example 59A] |  | 5.40 to 6.40 |  | > 6.40 |  |  | > 6.40
CCOP1(=O)Cc2ccc(c(OC)c2)Nc2ncc(C(F)(F)F)c(n2)Nc2ccc(c(Cl)c2C(=O)NC)-c2cnn(c2)CCCO1 (racemic) [Example 28] |  |  | < 5.40 | 5.40 to 6.40 | > 6.40 |  | 
CCOP1(=O)Cc2ccc(c(OC)c2)Nc2ncc(C(F)(F)F)c(n2)Nc2ccc(nc2C(=O)NC)-c2cnn(c2)CC(C)CO1 (mixture of isomers) [Example 19] | > 6.40 | > 6.40 |  | > 6.40 |  |  | 
CCOP1(=O)Cc2ccc(c(Cl)c2)Nc2ncc(C(F)(F)F)c(n2)Nc2ccc(nc2C(=O)NC)-c2cnn(c2)CC2(COC2)CO1 (racemic) [Example 58] |  | > 6.40 |  | > 6.40 | > 6.40 |  | 
CCOP1(=O)Cc2cc(OC)c(cc2Cl)Nc2ncc(C(F)(F)F)c(n2)Nc2ccc(nc2C(=O)NC)-c2cnn(c2)CC2(COC2)CO1 (single isomer, unassigned) [Example 57A] |  | < 5.40 | 5.40 to 6.40 | > 6.40 | > 6.40 |  | 
